What was measured:
[1] = tested on: ATF4 luciferase reporter in HEK293T cells; assay: ATF4-Luc assay (ATF4 luciferase reporter, tunicamycin-treated HEK293T cells); assay type: cell-based, human; details: Homo sapiens, HEK-293T; HEK293T cells carrying the ATF4 luciferase reporter, 1 μg/mL tunicamycin, 7 hours
[2] = molecular target: T1, eIF2B mutant B1 V183F (HEK293T ATF4-Fluc cells) (Homo sapiens, UniProt P49770+Q14232+Q9UI10, V183F); assay: ATF4-Luc assay, VWMD eIF2B mutant B1 V183F; assay type: cell-based; details: 1 μg/mL tunicamycin, 7 hours
T1 construct: endogenous in cells
Experimental: (§1) In order to test exemplary compounds of the invention in a cellular context, a stable VWMD cell line was first constructed. The ATF4 reporter was prepared by fusing the human full-length ATF4 5′-UTR (NCBI Accession No. BC022088.2) in front of the firefly luciferase (FLuc) coding sequence lacking the initiator methionine as described in Sidrauski et al (eLife 2013). The construct was used to produce recombinant retroviruses using standard methods and the resulting viral supernatant was used to transduce HEK293T cells, which were then subsequently selected with puromycin to generate a stable cell line.
(§2) HEK293T cells carrying the ATF4 luciferase reporter were plated on polylysine coated 384-well plates (Greiner Bio-one) at 30,000 cells per well. Cells were treated the next day with 1 μg/mL tunicamycin and 200 nM of a compound of Formula (I) for 7 hours. Luminescence was measured using One Glo (Promega) as specified by the manufacturer. Cells were maintained in DMEM with L-glutamine supplemented with 10% heat-inactivated FBS (Gibco) and Antibiotic-Antimycotic solution (Gibco).
(§3) VWMD mutations were introduced into the genome of the HEK293T ATF4-Fluc stable cell lines by using Gene Art CRISPR nuclease vector with OFP Reporter kit (ThermoFisher; see Table 3 below). Guide RNAs were designed using the CRISPR Design Tool (http://crispr.mit.edu) and ligated into the CRISPR OFP Nuclease Vector. To obtain homology directed repair (HDR) incorporating VWMD point mutations in the genome, 150 bp ssDNA ultramer oligos were synthesized by Integrated DNA Technologies containing specific mutations of interest. In addition to the VWMD mutations, the ssDNA HDR templates contained a silent mutation to the PAM site of the CRISPR gRNA sequence (to avoid further Cas9 cutting) and 75 bp of homology on each side of the mutation.
(§4) HEK293T ATF4-Fluc cells were transfected with 500 ng of the CRISPR OFP Nuclease Vector and 1 uL of 10 μM ssDNA HDR template using lipofectamine 3000 (ThermoFisher) or SF Cell Line 4D-nucleofector X Kit (Lonza) according to the manufacturer's instructions. After 2-3 days of recovery, single cells were sorted for positive OFP expression on a FACS Aria II (BD Biosciences) into wells of a 96 well plate and allowed to recover for 1-2 weeks.
(§5) The resulting clones were surveyed for CRISPR editing and HDR by harvesting the genomic DNA with the PureLink Genomic DNA kit (ThermoFisher), amplifying a […] locus near the editing site, and sequencing the amplicon. […] Typical clones obtained were hemizygous for the VWMD point mutation, with one or two alleles harboring the desired mutation, and the remaining alleles knocked out (edited to produce a premature stop codon). […]

[3] = molecular target: T2, eIF2B mutant B3 H341Q (HEK293T ATF4-Fluc cells) (Homo sapiens, UniProt P49770+Q9NR50+Q9UI10, H341Q); assay: ATF4-Luc assay, VWMD eIF2B mutant B3 H341Q; assay type: cell-based; details: 1 μg/mL tunicamycin, 7 hours
T2 construct: endogenous in cells
Experimental: as §1, §2, §3, §4, §5

[4] = molecular target: T3, eIF2B mutant B3 I346T (HEK293T ATF4-Fluc cells) (Homo sapiens, UniProt P49770+Q9NR50+Q9UI10, I346T); assay: ATF4-Luc assay, VWMD eIF2B mutant B3 I346T; assay type: cell-based; details: 1 μg/mL tunicamycin, 7 hours
T3 construct: endogenous in cells
Experimental: as §1, §2, §3, §4, §5

[5] = molecular target: T4, eIF2B mutant B4 R357W (HEK293T ATF4-Fluc cells) (Homo sapiens, UniProt P49770+Q9UI10, R357W); assay: ATF4-Luc assay, VWMD eIF2B mutant B4 R357W; assay type: cell-based; details: 1 μg/mL tunicamycin, 7 hours
T4 construct: endogenous in cells
Experimental: as §1, §2, §3, §4, §5

[6] = molecular target: T5, eIF2B mutant B4 R483W (HEK293T ATF4-Fluc cells) (Homo sapiens, UniProt P49770+Q9UI10, R483W); assay: ATF4-Luc assay, VWMD eIF2B mutant B4 R483W; assay type: cell-based; details: 1 μg/mL tunicamycin, 7 hours
T5 construct: endogenous in cells
Experimental: as §1, §2, §3, §4, §5

[7] = molecular target: T6, eIF2B mutant B5 R113H (HEK293T ATF4-Fluc cells) (Homo sapiens, UniProt P49770+Q13144+Q9UI10, R113H); assay: ATF4-Luc assay, VWMD eIF2B mutant B5 R113H; assay type: cell-based; details: 1 μg/mL tunicamycin, 7 hours
T6 construct: endogenous in cells
Experimental: as §1, §2, §3, §4, §5

[8] = molecular target: T7, eIF2B mutant B5 R195H (HEK293T ATF4-Fluc cells) (Homo sapiens, UniProt P49770+Q13144+Q9UI10, R195H); assay: ATF4-Luc assay, VWMD eIF2B mutant B5 R195H; assay type: cell-based; details: 1 μg/mL tunicamycin, 7 hours
T7 construct: endogenous in cells
Experimental: as §1, §2, §3, §4, §5

T6 sequence (Q13144 whole entry R113H): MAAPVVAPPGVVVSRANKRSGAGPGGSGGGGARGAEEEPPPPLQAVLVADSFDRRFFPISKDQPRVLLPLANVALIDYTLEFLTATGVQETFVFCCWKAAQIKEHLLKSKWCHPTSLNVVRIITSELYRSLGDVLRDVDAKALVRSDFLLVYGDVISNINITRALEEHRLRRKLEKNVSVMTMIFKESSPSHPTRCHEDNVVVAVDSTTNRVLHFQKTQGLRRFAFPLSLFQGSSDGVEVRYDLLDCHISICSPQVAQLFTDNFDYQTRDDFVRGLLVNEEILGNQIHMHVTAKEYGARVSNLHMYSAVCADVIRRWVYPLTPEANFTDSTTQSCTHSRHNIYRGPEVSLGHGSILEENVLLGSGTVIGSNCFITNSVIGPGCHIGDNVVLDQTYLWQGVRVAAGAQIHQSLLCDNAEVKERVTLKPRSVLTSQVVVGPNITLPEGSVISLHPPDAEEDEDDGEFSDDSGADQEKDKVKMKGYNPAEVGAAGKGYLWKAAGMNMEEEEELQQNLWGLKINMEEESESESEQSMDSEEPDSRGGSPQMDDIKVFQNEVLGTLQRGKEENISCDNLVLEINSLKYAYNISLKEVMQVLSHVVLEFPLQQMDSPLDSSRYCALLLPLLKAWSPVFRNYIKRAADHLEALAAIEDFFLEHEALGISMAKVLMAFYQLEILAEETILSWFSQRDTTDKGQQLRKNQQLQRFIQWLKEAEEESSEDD
T6 sequence (Q14232 whole entry partner): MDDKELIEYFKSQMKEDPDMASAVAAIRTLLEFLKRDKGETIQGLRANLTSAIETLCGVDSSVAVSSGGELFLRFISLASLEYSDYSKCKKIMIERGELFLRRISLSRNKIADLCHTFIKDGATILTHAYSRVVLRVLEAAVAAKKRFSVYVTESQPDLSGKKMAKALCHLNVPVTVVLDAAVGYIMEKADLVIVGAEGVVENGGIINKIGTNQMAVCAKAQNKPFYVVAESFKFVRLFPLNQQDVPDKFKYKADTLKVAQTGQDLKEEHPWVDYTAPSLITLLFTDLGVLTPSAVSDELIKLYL
T6 sequence (P49770 whole entry): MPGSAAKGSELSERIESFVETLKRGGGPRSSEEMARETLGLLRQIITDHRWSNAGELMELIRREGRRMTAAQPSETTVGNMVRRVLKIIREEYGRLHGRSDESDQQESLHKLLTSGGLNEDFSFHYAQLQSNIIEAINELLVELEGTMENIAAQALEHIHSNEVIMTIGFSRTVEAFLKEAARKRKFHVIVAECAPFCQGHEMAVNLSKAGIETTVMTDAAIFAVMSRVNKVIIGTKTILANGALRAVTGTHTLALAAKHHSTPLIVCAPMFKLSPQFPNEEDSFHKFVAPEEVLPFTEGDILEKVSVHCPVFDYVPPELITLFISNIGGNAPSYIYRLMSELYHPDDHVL
T6 sequence (Q9NR50 whole entry partner): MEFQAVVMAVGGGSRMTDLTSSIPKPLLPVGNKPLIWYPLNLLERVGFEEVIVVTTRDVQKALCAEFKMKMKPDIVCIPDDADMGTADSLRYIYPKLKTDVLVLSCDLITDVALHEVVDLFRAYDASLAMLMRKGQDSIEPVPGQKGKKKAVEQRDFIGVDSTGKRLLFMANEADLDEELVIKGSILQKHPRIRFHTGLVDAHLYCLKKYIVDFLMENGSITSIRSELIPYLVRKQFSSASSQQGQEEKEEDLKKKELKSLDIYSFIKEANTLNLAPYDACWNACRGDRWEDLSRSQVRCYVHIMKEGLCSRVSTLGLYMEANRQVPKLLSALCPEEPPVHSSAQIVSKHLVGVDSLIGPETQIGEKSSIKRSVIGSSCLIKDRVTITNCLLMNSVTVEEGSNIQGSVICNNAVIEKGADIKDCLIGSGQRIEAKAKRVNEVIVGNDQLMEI
T6 sequence (Q9UI10 whole entry): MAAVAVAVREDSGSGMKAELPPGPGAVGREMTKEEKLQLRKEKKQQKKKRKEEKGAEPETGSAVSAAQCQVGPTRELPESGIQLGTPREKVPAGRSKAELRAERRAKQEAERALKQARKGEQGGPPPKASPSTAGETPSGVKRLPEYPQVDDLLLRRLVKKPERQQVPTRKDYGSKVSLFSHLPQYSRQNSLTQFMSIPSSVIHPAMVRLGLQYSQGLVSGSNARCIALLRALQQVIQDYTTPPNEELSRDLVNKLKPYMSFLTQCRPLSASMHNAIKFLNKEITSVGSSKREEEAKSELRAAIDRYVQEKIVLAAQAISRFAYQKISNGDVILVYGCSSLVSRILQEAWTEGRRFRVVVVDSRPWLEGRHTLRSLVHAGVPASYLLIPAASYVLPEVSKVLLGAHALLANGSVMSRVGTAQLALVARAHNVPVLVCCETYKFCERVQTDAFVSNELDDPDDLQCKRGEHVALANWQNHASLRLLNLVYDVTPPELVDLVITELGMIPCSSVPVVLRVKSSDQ
T3 sequence (Q9NR50 whole entry I346T): as the sequence (Q9NR50 whole entry partner) above, with I346T counted along it
T3 sequence (Q14232 whole entry partner): as the sequence (Q14232 whole entry partner) above
T3 sequence (P49770 whole entry): as the sequence (P49770 whole entry) above
T3 sequence (Q9UI10 whole entry): as the sequence (Q9UI10 whole entry) above
T3 sequence (Q13144 whole entry partner): as the sequence (Q13144 whole entry R113H) above, with H113R counted along it
T1 sequence (Q14232 whole entry V183F): as the sequence (Q14232 whole entry partner) above, with V183F counted along it
T1 sequence (P49770 whole entry): as the sequence (P49770 whole entry) above
T1 sequence (Q9NR50 whole entry partner): as the sequence (Q9NR50 whole entry partner) above
T1 sequence (Q9UI10 whole entry): as the sequence (Q9UI10 whole entry) above
T1 sequence (Q13144 whole entry partner): as the sequence (Q13144 whole entry R113H) above, with H113R counted along it
T4 sequence (Q9UI10 whole entry R357W): as the sequence (Q9UI10 whole entry) above, with R357W counted along it
T4 sequence (Q14232 whole entry partner): as the sequence (Q14232 whole entry partner) above
T4 sequence (P49770 whole entry): as the sequence (P49770 whole entry) above
T4 sequence (Q9NR50 whole entry partner): as the sequence (Q9NR50 whole entry partner) above
T4 sequence (Q13144 whole entry partner): as the sequence (Q13144 whole entry R113H) above, with H113R counted along it
T5 sequence (Q9UI10 whole entry R483W): as the sequence (Q9UI10 whole entry) above, with R483W counted along it
T5 sequence (Q14232 whole entry partner): as the sequence (Q14232 whole entry partner) above
T5 sequence (P49770 whole entry): as the sequence (P49770 whole entry) above
T5 sequence (Q9NR50 whole entry partner): as the sequence (Q9NR50 whole entry partner) above
T5 sequence (Q13144 whole entry partner): as the sequence (Q13144 whole entry R113H) above, with H113R counted along it
T2 sequence (Q9NR50 whole entry H341Q): as the sequence (Q9NR50 whole entry partner) above, with H341Q counted along it
T2 sequence (Q14232 whole entry partner): as the sequence (Q14232 whole entry partner) above
T2 sequence (P49770 whole entry): as the sequence (P49770 whole entry) above
T2 sequence (Q9UI10 whole entry): as the sequence (Q9UI10 whole entry) above
T2 sequence (Q13144 whole entry partner): as the sequence (Q13144 whole entry R113H) above, with H113R counted along it
T7 sequence (Q13144 whole entry R195H): as the sequence (Q13144 whole entry R113H) above, with H113R, R195H counted along it
T7 sequence (Q14232 whole entry partner): as the sequence (Q14232 whole entry partner) above
T7 sequence (P49770 whole entry): as the sequence (P49770 whole entry) above
T7 sequence (Q9NR50 whole entry partner): as the sequence (Q9NR50 whole entry partner) above
T7 sequence (Q9UI10 whole entry): as the sequence (Q9UI10 whole entry) above

EC50 [2] [nM] | EC50 [3] [nM] | EC50 [4] [nM] | EC50 [5] [nM] | EC50 [6] [nM] | EC50 [7] [nM] | EC50 [8] [nM] | Compound | EC50 [1] [nM]
< 10 | < 10 | < 10 | < 10 | < 10 | < 10 | < 10 | O=C(COc1ccc(Cl)c(F)c1)NC12CCC(NC(=O)COc3ccc(Cl)c(F)c3)(CC1)[C@@H](O)C2 (single isomer, unassigned) [Compound 297] | < 10
50 to 250 | 10 to 50 | < 10 | 10 to 50 | < 10 | 10 to 50 | 10 to 50 | O=C(COc1ccc(C(F)(F)F)nc1)NC12CC(NC(=O)COc3ccc(Cl)c(F)c3)(C1)C2 [Compound 175, 2-(4-chloro-3-fluorophenoxy)-N-[3-(2-{[6-(trifluoromethyl)pyridin-3-yl]oxy}acetamido)bicyclo[1.1.1]pentan-1-yl]acetamide] | < 10
> 2000 | 500 to 2000 | 500 to 2000 | 500 to 2000 | > 2000 | > 2000 | 500 to 2000 | Cc1noc(COCC(=O)NC23CC(NC(=O)COc4ccc(Cl)c(F)c4)(C2)C3)n1 [Compound 217, 2-(4-chloro-3-fluorophenoxy)-N-(3-{2-[(3-methyl-1,2,4-oxadiazol-5-yl)methoxy]acetamido}bicyclo[1.1.1]pentan-1-yl)acetamide] | 500 to 2000
< 10 | < 10 | < 10 | < 10 | < 10 | < 10 | < 10 | O=C(COc1ccc(Cl)cc1)NC12CC(NC(=O)COc3ccc(Cl)cc3)(C1)C2 [Compound 112, N,N′-(bicyclo[1.1.1]pentane-1,3-diyl)bis[2-(4-chlorophenoxy)acetamide]] | < 10
 |  |  |  |  |  |  | O=C(COc1ccc(Cl)c(F)c1)NC12CCC(NC(=O)COc3cccc(Cl)c3)(CC1)[C@@H](O)C2 [Compound 660, 2-(4-chloro-3-fluorophenoxy)-N-{(3S)-4-[2-(3-chlorophenoxy)acetamido]-3-hydroxybicyclo[2.2.2]octan-1-yl}acetamide] | < 10
 |  |  |  |  |  |  | O=C(COc1ccc(C(F)(F)F)nc1)NC12CCC(NC(=O)COc3ccc(C(F)(F)F)nc3)(CC1)[C@@H](O)C2 [Compound 541, N,N′-[(2S)-2-hydroxybicyclo[2.2.2]octane-1,4-diyl]bis(2-{[6-(trifluoromethyl)pyridin-3-yl]oxy}acetamide)] | 10 to 50

Source: patent US20240166652A1, “MODULATORS OF THE INTEGRATED STRESS PATHWAY” (Calico Life Sciences LLC, priority 2017, published 2024)
